Measured values taken from publication PMC9845330 (Communications Biology, 2023).
Non-standard residues stand in square brackets, D forms with d. Residues, ends and D or L forms follow the SMILES beside them. *: point of attachment. X1 = O=C(CCCC[C@@H]1SC[C@@H]2NC(=O)N[C@@H]21)NCCCOCCOCCOCCCN*; PEG12 = NCCOCCOCCOCCOCCOCCOCCOCCOCCOCCOCCOCCOCCC(=O)O

System: H1299 xenograft tumor
Assay: Tumor homing by near infrared imaging
Assay type: in vivo, mouse
Source text: Animal experiments were approved by SRI International’s Institutional Animal Care and Use committee (Animal Welfare Assurance Number A3025-01, protocol 14008). H2009 cells (10^6) or H1299 cells (10^6) were implanted subcutaneously on the flank of female Nu/Nu mice (Jackson Laboratory, Bar Harbor, ME). When tumors reached 100 mm^3, in vivo experiments were initiated. For imaging, the indicated peptides were conjugated directly to Alexa Fluor 750 near-infrared dye (Supplemental Fig. 1). Four animals per group were used. Peptides were injected into the lateral tail vein for a total dose 15 µgs/mouse delivered in 100 µL. At set period of times, animals were anesthetized and imaged on an IVIS® (Perkin Elmer). Regions of interest were drawn around the tumor and the total radiant efficiency was measured. For therapeutic experiments, we chose to use the H2009 tumor model as it has a higher tumor take rate and more consistent growth rate than the H1299 model. Biotinylated MGS4_V8 (N = 9) or MGS4_V6 (N = 8) were conjugated to streptavidin-saporin and administered via tail-vein injection (7.5 µg/100 µl) 2x/week for 2.5 weeks for a total of 5 treatments. Nontreated animals (N = 8) served as the control. Tumor size was measured with calipers every other day and volume was calculated as (π/6)(l*w)^3/2. Statistical analysis was performed on GraphPad Prism®.
Supplemental Figure 1. […]
-Qdot605, streptavidin-R- phycoerythrin, and streptavidin-saporin. b) For NIR imaging experiments, Alexa Fluor 750 was directly conjugated to the peptide by the reaction of maleimide modified dye with a thiol containing MGS4_V8 peptide. c ) The structure of the monomeric MGS4 used for serum stabilities. […]
Supplemental Figure 5. MGS4_V8 homes to H12 99 xenograft tumor after systemic delivery.
H1299 tumor bearing nude mice ( N=4 ) were injected I.V. with MGS4_V8 or MGS4_V6 conjugated to NIR dye Alexa Fluor 750. At 24, 48, and 72 hours post injection, mice were anesthetized and imaged on an IVIS® (Perkin E lme r ) to measure total radiant efficiency in each tumor. MGS4_V8 accumulates in tumor ≈3-fold better than control peptide, MGS4_V6. MGS4_V6 accumulation is statistically no different than […]
untreated tumo rs. […]
A standard curve was generated using Quantum ™ Alexa Fluor 647 microspheres (Bangs Laboratory, Fishers, IN). A representative linear regression showing the correlation of molecule equivalents soluble fluorophores (MESF) vs the mean fluorescence intensity (MFI) is shown. The MFI is determined at 50% […]
Supplemental Figure 7. Example of flow cytometry data: MGS4_V10 Uptake on H1993 Cells .
The gating strategy, cell population data , and MFI determination for an example binding experiment is shown. Cells were gated by forward and side scatter to exclude nonviable cells or cell clusters as shown.
Individual dot plots and histograms are shown for a concentration range of 0.1 nM – 50 nM. The MFI is determined at 50% peak height. Molecules internalized per cell were determined by the standard curve relating MESF to MFI and divided by the number dye molecules/MGS conjugate.

CC(=O)N[C@@H](Cc1ccccc1)C(=O)N[C@@H](Cc1c[nH]cn1)C(=O)N[C@@H](C)C(=O)N[C@H](C(=O)N1CCC[C@H]1C(=O)N[C@@H](CCC(N)=O)C(=O)N[C@@H](CO)C(=O)N[C@@H](Cc1ccccc1)C(=O)N[C@@H](Cc1ccc(O)cc1)C(=O)N[C@H](C(=O)NCCOCCOCCOCCOCCOCCOCCOCCOCCOCCOCCOCCOCCC(=O)N[C@@H](CCC(=O)NCCCOCCOCCOCCCNC(=O)CCCC[C@@H]1SC[C@@H]2NC(=O)N[C@@H]21)C(N)=O)[C@@H](C)O)C(C)C [MGS4_V8] (Ac-FHAVPQSFYT[PEG12]E(X1)-NH2)
Total Radiant Efficiency (24 h, Mouse 1): 1.32e+009 | Total Radiant Efficiency (24 h, Mouse 2): 1.83e+009 | Total Radiant Efficiency (24 h, Mouse 3): 9.57e+008 | Total Radiant Efficiency (24 h, Mouse 4): 2.96e+009 | Total Radiant Efficiency (48 h, Mouse 1): 9.13e+008 | Total Radiant Efficiency (48 h, Mouse 2): 9.76e+008 | Total Radiant Efficiency (48 h, Mouse 3): 7.72e+008 | Total Radiant Efficiency (48 h, Mouse 4): 1.71e+009 | Total Radiant Efficiency (72 h, Mouse 1): 9.42e+008 | Total Radiant Efficiency (72 h, Mouse 2): 7.37e+008 | Total Radiant Efficiency (72 h, Mouse 3): 1.06e+009 | Total Radiant Efficiency (72 h, Mouse 4): 1.35e+009 | fold tumor accumulation versus control peptide MGS4_V6 (H1299 tumors, 24-72 h, Alexa Fluor 750 conjugate, N=4): ≈ 3 fold

*HAVPQSFYT** [MGS4_V6]
Total Radiant Efficiency (24 h, Mouse 1): 7.74e+008 | Total Radiant Efficiency (24 h, Mouse 2): 4.6e+008 | Total Radiant Efficiency (24 h, Mouse 3): 7.58e+008 | Total Radiant Efficiency (24 h, Mouse 4): 3.13e+008 | Total Radiant Efficiency (48 h, Mouse 1): 5.44e+008 | Total Radiant Efficiency (48 h, Mouse 2): 3.19e+008 | Total Radiant Efficiency (48 h, Mouse 3): 3.39e+008 | Total Radiant Efficiency (48 h, Mouse 4): 3.19e+008 | Total Radiant Efficiency (72 h, Mouse 1): 5.46e+008 | Total Radiant Efficiency (72 h, Mouse 2): 3.28e+008 | Total Radiant Efficiency (72 h, Mouse 3): 3.61e+008 | Total Radiant Efficiency (72 h, Mouse 4): 4.28e+008
